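The compound was tested at five concentrations on cells cultured in 96-well plates, with a 48-hour exposure period. The concentration for 50% growth inhibition is given as GI50.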 The source made the active and inactive calls. Rule as the data show it: active = GI50 up to about 1.1 µM and inactive = higher.
Key:
Assay in all cases: NCI anticancer screen, dose series, 48 h
[1] = tested on: A498
[2] = tested on: LOX IMVI
[3] = tested on: RXF 393
[4] = tested on: MDA-MB-435
[5] = tested on: COLO 205
[6] = tested on: SK-MEL-2
[7] = tested on: NCI-H226
[8] = tested on: SK-OV-3
[9] = tested on: UACC-62
[10] = tested on: CAKI-1
[11] = tested on: OVCAR-5
[12] = tested on: 786-0
[13] = tested on: SF-268
[14] = tested on: SNB-19
[15] = tested on: HT-29
[16] = tested on: U-251
[17] = tested on: SF-295
[18] = tested on: HOP-92
[19] = tested on: OVCAR-8
[20] = tested on: OVCAR-4
[21] = tested on: SNB-75
[22] = tested on: MCF7
[23] = tested on: HCT-116
[24] = tested on: M14
[25] = tested on: EKVX
[26] = tested on: MOLT-4
[27] = tested on: DU-145
[28] = tested on: PC-3
[29] = tested on: RPMI-8226
[30] = tested on: KM12
[31] = tested on: K562
[32] = tested on: NCI-H460
[33] = tested on: TK-10
[34] = tested on: SK-MEL-5
[35] = tested on: MDA-MB-231
[36] = tested on: UO-31
[37] = tested on: ACHN
[38] = tested on: OVCAR-3
[39] = tested on: NCI-H23
[40] = tested on: SF-539
[41] = tested on: A549
[42] = tested on: HCT-15
[43] = tested on: Hs-578T
[44] = tested on: CCRF-CEM
[45] = tested on: HL-60
[46] = tested on: HOP-62
[47] = tested on: SR
[48] = tested on: NCI/ADR-RES
[49] = tested on: HCC 2998
[50] = tested on: Malme-3M
[51] = tested on: SW-620
[52] = tested on: MDA-N
[53] = tested on: SN12C
[54] = tested on: T47D
[55] = tested on: SK-MEL-28
[56] = tested on: NCI-H522
[57] = tested on: UACC-257
[58] = tested on: IGROV-1

Q: Which GI50 [1] does the source give for Cc1ccc(S(=O)(=O)NC(=O)Nc2nnc(S(N)(=O)=O)s2)cc1 here?
A: > 100 µM (inactive)

Q: What about the GI50 [2] of the same compound?
A: > 100 µM (inactive)

Q: And the GI50 [3]?
A: > 100 µM (inactive)

Q: And the GI50 [4]?
A: > 100 µM (inactive)

Q: What about the GI50 [5] of the same compound?
A: > 100 µM (inactive)

Q: And the GI50 [6]?
A: > 100 µM (inactive)

Q: What about the GI50 [7] of the same compound?
A: > 100 µM (inactive)

Q: What about the GI50 [8] of the same compound?
A: > 100 µM (inactive)

Q: And the GI50 [9]?
A: > 100 µM (inactive)

Q: What about the GI50 [10] of the same compound?
A: > 100 µM (inactive)

Q: And the GI50 [11]?
A: > 100 µM (inactive)

Q: And the GI50 [12]?
A: > 100 µM (inactive)

Q: What about the GI50 [13] of the same compound?
A: > 100 µM (inactive)

Q: And the GI50 [14]?
A: > 100 µM (inactive)

Q: And the GI50 [15]?
A: > 100 µM (inactive)

Q: And the GI50 [16]?
A: > 100 µM (inactive)

Q: And the GI50 [17]?
A: > 100 µM (inactive)

Q: And the GI50 [18]?
A: > 100 µM (inactive)

Q: And the GI50 [19]?
A: > 100 µM (inactive)

Q: And the GI50 [20]?
A: > 100 µM (inactive)

Q: What about the GI50 [21] of the same compound?
A: > 100 µM (inactive)

Q: And the GI50 [22]?
A: > 100 µM (inactive)

Q: And the GI50 [23]?
A: > 100 µM (inactive)

Q: What about the GI50 [24] of the same compound?
A: > 100 µM (inactive)

Q: What about the GI50 [25] of the same compound?
A: > 100 µM (inactive)

Q: What about the GI50 [26] of the same compound?
A: > 100 µM (inactive)

Q: What about the GI50 [27] of the same compound?
A: > 100 µM (inactive)

Q: And the GI50 [28]?
A: > 100 µM (inactive)

Q: And the GI50 [29]?
A: > 100 µM (inactive)

Q: What about the GI50 [30] of the same compound?
A: > 100 µM (inactive)

Q: What about the GI50 [31] of the same compound?
A: > 100 µM (inactive)

Q: What about the GI50 [32] of the same compound?
A: > 100 µM (inactive)

Q: What about the GI50 [33] of the same compound?
A: > 100 µM (inactive)

Q: And the GI50 [34]?
A: > 100 µM (inactive)

Q: What about the GI50 [35] of the same compound?
A: > 100 µM (inactive)

Q: And the GI50 [36]?
A: > 100 µM (inactive)

Q: And the GI50 [37]?
A: > 100 µM (inactive)

Q: And the GI50 [38]?
A: > 100 µM (inactive)

Q: And the GI50 [39]?
A: > 100 µM (inactive)

Q: And the GI50 [40]?
A: > 100 µM (inactive)

Q: What about the GI50 [41] of the same compound?
A: > 100 µM (inactive)

Q: What about the GI50 [42] of the same compound?
A: > 100 µM

Q: And the GI50 [43]?
A: > 100 µM (inactive)

Q: What about the GI50 [44] of the same compound?
A: < 0.01 µM (active)

Q: What about the GI50 [45] of the same compound?
A: > 100 µM (inactive)

Q: And the GI50 [46]?
A: > 100 µM (inactive)

Q: And the GI50 [47]?
A: > 100 µM (inactive)

Q: And the GI50 [48]?
A: > 100 µM (inactive)

Q: And the GI50 [49]?
A: > 100 µM (inactive)

Q: And the GI50 [50]?
A: > 100 µM (inactive)

Q: What about the GI50 [51] of the same compound?
A: > 100 µM (inactive)

Q: Which GI50 [1] does the source give for COc1ccc(C2OC2C(=O)C23CC4CC(CC(C4)C2)C3)cc1 (centres undefined) here?
A: > 100 µM (inactive)

Q: And the GI50 [2]?
A: 19.1 µM (inactive)

Q: And the GI50 [52]?
A: 37.8 µM (inactive)

Q: What about the GI50 [3] of the same compound?
A: 37.6 µM (inactive)

Q: And the GI50 [4]?
A: 48.6 µM (inactive)

Q: What about the GI50 [7] of the same compound?
A: > 100 µM (inactive)

Q: What about the GI50 [9] of the same compound?
A: 10.4 µM (inactive)

Q: What about the GI50 [11] of the same compound?
A: > 100 µM (inactive)

Q: What about the GI50 [12] of the same compound?
A: 46.3 µM (inactive)

Q: What about the GI50 [13] of the same compound?
A: 54.6 µM (inactive)

Q: And the GI50 [14]?
A: 33.3 µM (inactive)

Q: What about the GI50 [15] of the same compound?
A: 13.4 µM (inactive)

Q: What about the GI50 [53] of the same compound?
A: 36.8 µM (inactive)

Q: What about the GI50 [16] of the same compound?
A: 36.1 µM (inactive)

Q: What about the GI50 [17] of the same compound?
A: 33.7 µM (inactive)

Q: And the GI50 [18]?
A: 19.1 µM (inactive)

Q: And the GI50 [54]?
A: 14.4 µM (inactive)

Q: And the GI50 [19]?
A: 38.3 µM (inactive)

Q: And the GI50 [20]?
A: > 100 µM (inactive)

Q: What about the GI50 [21] of the same compound?
A: > 10 µM (inactive)

Q: What about the GI50 [22] of the same compound?
A: 47.9 µM (inactive)

Q: What about the GI50 [23] of the same compound?
A: 58.6 µM (inactive)

Q: What about the GI50 [24] of the same compound?
A: > 100 µM (inactive)

Q: And the GI50 [55]?
A: > 100 µM (inactive)

Q: And the GI50 [25]?
A: > 100 µM (inactive)

Q: What about the GI50 [26] of the same compound?
A: 47.1 µM (inactive)

Q: And the GI50 [56]?
A: 45.5 µM (inactive)

Q: And the GI50 [27]?
A: 90.8 µM (inactive)

Q: And the GI50 [28]?
A: 31.9 µM (inactive)

Q: What about the GI50 [29] of the same compound?
A: 25.2 µM (inactive)

Q: And the GI50 [30]?
A: 96.8 µM (inactive)

Q: What about the GI50 [31] of the same compound?
A: 27.2 µM (inactive)

Q: And the GI50 [32]?
A: 44.8 µM (inactive)

Q: And the GI50 [57]?
A: 54.6 µM (inactive)

Q: What about the GI50 [33] of the same compound?
A: > 100 µM (inactive)

Q: And the GI50 [34]?
A: 77.8 µM (inactive)

Q: And the GI50 [35]?
A: 33 µM (inactive)

Q: And the GI50 [36]?
A: > 100 µM (inactive)

Q: And the GI50 [37]?
A: > 100 µM (inactive)

Q: And the GI50 [38]?
A: > 100 µM (inactive)

Q: And the GI50 [39]?
A: 76 µM (inactive)

Q: What about the GI50 [40] of the same compound?
A: > 100 µM (inactive)

Q: And the GI50 [41]?
A: 45.6 µM (inactive)

Q: What about the GI50 [42] of the same compound?
A: 41.4 µM

Q: And the GI50 [43]?
A: 13.6 µM (inactive)

Q: What about the GI50 [58] of the same compound?
A: 71.1 µM (inactive)

Q: What about the GI50 [44] of the same compound?
A: 60.7 µM (inactive)

Q: What about the GI50 [45] of the same compound?
A: 15.9 µM (inactive)

Q: And the GI50 [46]?
A: 31.1 µM (inactive)

Q: What about the GI50 [48] of the same compound?
A: > 100 µM (inactive)

Q: What about the GI50 [49] of the same compound?
A: 31 µM (inactive)

Q: And the GI50 [50]?
A: > 100 µM (inactive)

Q: What about the GI50 [51] of the same compound?
A: > 100 µM (inactive)

Q: How did the GI50 [1] turn out when COc1cc([C@@H]2c3cc4c(cc3[C@@H](NC(=O)NO)[C@H]3COC(=O)[C@H]23)OCO4)cc(OC)c1O was run?
A: 14 µM (inactive)

Q: What about the GI50 [2] of the same compound?
A: 4.58 µM (inactive)

Q: And the GI50 [52]?
A: 2.15 µM (inactive)

Q: And the GI50 [4]?
A: 2.29 µM (inactive)

Q: And the GI50 [5]?
A: 5.3 µM (inactive)

Q: What about the GI50 [6] of the same compound?
A: 4.38 µM (inactive)

Q: And the GI50 [10]?
A: 6.31 µM (inactive)

Q: What about the GI50 [12] of the same compound?
A: 4.98 µM (inactive)

Q: What about the GI50 [13] of the same compound?
A: 61.5 µM (inactive)

Q: And the GI50 [14]?
A: > 100 µM (inactive)

Q: What about the GI50 [15] of the same compound?
A: 5.19 µM (inactive)

Q: And the GI50 [53]?
A: 4.71 µM (inactive)

Q: And the GI50 [16]?
A: 6.9 µM (inactive)

Q: What about the GI50 [18] of the same compound?
A: > 100 µM (inactive)

Q: And the GI50 [54]?
A: > 100 µM (inactive)

Q: And the GI50 [20]?
A: > 100 µM (inactive)

Q: What about the GI50 [23] of the same compound?
A: 4.84 µM (inactive)

Q: What about the GI50 [25] of the same compound?
A: 7.45 µM (inactive)

Q: What about the GI50 [56] of the same compound?
A: > 100 µM (inactive)

Q: And the GI50 [28]?
A: 4.91 µM (inactive)

Q: And the GI50 [29]?
A: 4.03 µM (inactive)

Q: What about the GI50 [31] of the same compound?
A: 3.1 µM (inactive)

Q: What about the GI50 [32] of the same compound?
A: 4.42 µM (inactive)

Q: What about the GI50 [57] of the same compound?
A: > 100 µM (inactive)

Q: And the GI50 [33]?
A: > 100 µM (inactive)

Q: What about the GI50 [35] of the same compound?
A: 4.42 µM (inactive)

Q: What about the GI50 [40] of the same compound?
A: 3.6 µM (inactive)

Q: What about the GI50 [42] of the same compound?
A: 3.8 µM

Q: What about the GI50 [58] of the same compound?
A: 3.25 µM (inactive)

Q: And the GI50 [44]?
A: 12.7 µM (inactive)

Q: What about the GI50 [45] of the same compound?
A: 3.72 µM (inactive)

Q: What about the GI50 [46] of the same compound?
A: 5.37 µM (inactive)

Q: And the GI50 [47]?
A: 9.12 µM (inactive)

Q: What about the GI50 [48] of the same compound?
A: 12.7 µM (inactive)

Q: What about the GI50 [51] of the same compound?
A: 6.19 µM (inactive)

Reference: ChEMBL document CHEMBL1201862, “PubChem BioAssay data set” (2004)
